According to patent US9512111B2, “N-sulfonylated tetrahydroquinolines and related bicyclic compounds for inhibition of RORγ activity and the treatment of disease” (Lycera Corporation, priority 2010, dated 2016):

These compounds were tested against T1, RORγ-LBD (Homo sapiens, UniProt P51449) (assay: RORγ-Ligand Binding Domain TR-FRET Assay). Conditions: Table 8, indazoles.
T1 construct: HIS-tagged RORγ-LBD was recombinantly expressed in SF9 cells; made in house; host or cells: SF9 cells (baculovirus); unpurified lysate
T1 sequence (P51449 269-508 limits assumed): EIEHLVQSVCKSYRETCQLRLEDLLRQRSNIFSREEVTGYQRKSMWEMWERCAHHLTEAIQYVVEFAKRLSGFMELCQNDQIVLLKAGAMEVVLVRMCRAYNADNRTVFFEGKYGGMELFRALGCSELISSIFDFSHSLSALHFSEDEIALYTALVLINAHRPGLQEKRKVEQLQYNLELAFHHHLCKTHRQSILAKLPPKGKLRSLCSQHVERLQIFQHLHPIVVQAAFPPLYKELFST
Assay type: biochemical
How it was run: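 IC50 derived from the 665 nm/615 nm emission ratio after 4 h to overnight incubation. Mixture: Sf9 lysate with His-tagged LBD (~10 nM final, not purified), SRC1-2 LXXLL biotin peptide at 450 nM, 2 nM europium anti-His antibody, 60 nM APC-streptavidin; buffer 25 mM HEPES pH 7.0, 100 mM NaCl, 0.01% Tween, 0.1% BSA.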

IC50, < 15 µM:
O=C(Nc1ccc2cnn(S(=O)(=O)c3cc(F)cc(F)c3)c2c1)c1c(F)cccc1Cl [Compound V-114]
Cn1cnc(S(=O)(=O)n2ncc3ccc(NC(=O)c4c(F)cccc4Cl)cc32)c1 [Compound V-147]
Cc1nn(C(F)F)cc1S(=O)(=O)n1ncc2ccc(NC(=O)Cc3ccc(Cl)cc3)cc21 [Compound V-27]
O=C(Nc1ccc2cnn(S(=O)(=O)c3cccc(OC(F)(F)F)c3)c2c1)c1c(F)cccc1Cl [Compound V-54]
COC(=O)c1sccc1S(=O)(=O)n1ncc2ccc(NC(=O)c3c(F)cccc3Cl)cc21 [Compound V-144]
O=C(Nc1ccc2cnn(S(=O)(=O)c3ccc(F)cc3Cl)c2c1)c1c(F)cccc1Cl [Compound V-166]
CC(=O)c1cccc(S(=O)(=O)n2ncc3ccc(NC(=O)c4c(F)cccc4C(F)(F)F)cc32)c1 [Compound V-12]
O=C(Nc1ccc2cnn(S(=O)(=O)c3ccccc3C(F)(F)F)c2c1)c1c(F)cccc1Cl [Compound V-132]
O=C(Nc1ccc2cnn(S(=O)(=O)c3cccc(OC(F)F)c3)c2c1)c1c(F)cccc1F [Compound V-58]
COc1cccc(S(=O)(=O)n2ncc3ccc(NC(=O)c4c(F)cccc4Cl)cc32)c1 [Compound V-148]
Cc1ccc(F)c(S(=O)(=O)n2ncc3ccc(NC(=O)c4c(F)cccc4Cl)cc32)c1 [Compound V-101]
O=C(Nc1ccc2cnn(S(=O)(=O)c3ccccc3Br)c2c1)c1c(F)cccc1Cl [Compound V-84]
COc1ccc(Br)cc1S(=O)(=O)n1ncc2ccc(NC(=O)c3c(F)cccc3Cl)cc21 [Compound V-83]
O=C(Nc1ccc2cnn(S(=O)(=O)c3ccccc3Cl)c2c1)c1c(F)cccc1Cl [Compound V-136]
O=C(Nc1ccc2cnn(S(=O)(=O)c3ccc(F)c(F)c3)c2c1)c1c(F)cccc1Cl [Compound V-170]
O=C(Cc1ccc(Cl)cc1)Nc1ccc2cnn(S(=O)(=O)c3cccc(OC(F)F)c3)c2c1 [Compound V-29]
O=C(Nc1ccc2cnn(S(=O)(=O)c3cccc(Cl)c3F)c2c1)c1c(F)cccc1Cl [Compound V-167]
Cc1cccc(S(=O)(=O)n2ncc3ccc(NC(=O)c4c(Cl)cccc4Cl)cc32)c1 [Compound V-70]
COc1ccc(F)cc1S(=O)(=O)n1ncc2ccc(NC(=O)c3c(F)cccc3Cl)cc21 [Compound V-100]
Cc1c(S(=O)(=O)n2ncc3ccc(NC(=O)c4c(F)cccc4Cl)cc32)cnn1C [Compound V-110]
CNC(=O)c1cccc(S(=O)(=O)n2ncc3ccc(NC(=O)c4c(F)cccc4Cl)cc32)c1 [Compound V-107]
O=C(Nc1ccc2cnn(S(=O)(=O)Cc3ccc(C(F)(F)F)cc3)c2c1)c1c(F)cccc1C(F)(F)F [Compound V-47]
CC(C)(C)c1cccc(S(=O)(=O)n2ncc3ccc(NC(=O)c4c(F)cccc4C(F)(F)F)cc32)c1 [Compound V-11]
CC(=O)c1cccc(S(=O)(=O)n2ncc3ccc(NC(=O)c4c(F)cccc4Cl)cc32)c1 [Compound V-122]
O=C(Nc1ccc2cnn(S(=O)(=O)c3ccc(I)cc3)c2c1)c1c(F)cccc1Cl [Compound V-131]
O=C(Nc1ccc2cnn(S(=O)(=O)c3ccc(F)c(C(F)(F)F)c3)c2c1)c1c(F)cccc1C(F)(F)F [Compound V-44]
Cc1nn(C(F)F)cc1S(=O)(=O)n1ncc2ccc(NC(=O)c3c(F)cccc3C(F)(F)F)cc21 [Compound V-43]
CC(=O)c1cccc(S(=O)(=O)n2ncc3ccc(NC(=O)c4c(Cl)cccc4Cl)cc32)c1 [Compound V-69]
CC(=O)c1cccc(S(=O)(=O)n2ncc3ccc(NC(=O)c4c(F)cccc4F)cc32)c1 [Compound V-59]
Cc1nn(C(F)F)cc1S(=O)(=O)n1ncc2ccc(NC(=O)c3c(Cl)cccc3Cl)cc21 [Compound V-65]
O=C(Nc1ccc2cnn(S(=O)(=O)C3CC3c3ccccc3)c2c1)c1c(F)cccc1Cl (stereo not drawn) [Compound V-105]
Cc1ccc(S(=O)(=O)n2ncc3ccc(NC(=O)c4c(F)cccc4Cl)cc32)c(C)c1 [Compound V-103]
O=C(Nc1ccc2cnn(S(=O)(=O)c3cc(Cl)sc3Cl)c2c1)c1c(F)cccc1Cl [Compound V-82]
CC(C)c1ccc(S(=O)(=O)n2ncc3ccc(NC(=O)c4c(F)cccc4Cl)cc32)cc1 [Compound V-120]
CCCc1ccc(S(=O)(=O)n2ncc3ccc(NC(=O)c4c(F)cccc4Cl)cc32)cc1 [Compound V-115]
O=C(Nc1ccc2cnn(S(=O)(=O)c3cccc(OC(F)F)c3)c2c1)c1c(F)cccc1Cl [Compound V-85]
Cc1nn(C)c(C)c1S(=O)(=O)n1ncc2ccc(NC(=O)c3c(F)cccc3Cl)cc21 [Compound V-90]
O=C(Nc1ccc2cnn(S(=O)(=O)c3cc(Cl)c(Cl)s3)c2c1)c1c(F)cccc1Cl [Compound V-97]
CC(C)(C)c1cccc(S(=O)(=O)n2ncc3ccc(NC(=O)c4c(Cl)cccc4Cl)cc32)c1 [Compound V-67]
COc1cccc(S(=O)(=O)n2ncc3ccc(NC(=O)Cc4cc(F)cc(F)c4)cc32)c1 [Compound V-16]
O=C(Nc1ccc2cnn(S(=O)(=O)c3ccc(C(F)(F)F)cc3)c2c1)c1c(F)cccc1Cl [Compound V-88]
Cc1ccc(S(=O)(=O)n2ncc3ccc(NC(=O)c4c(F)cccc4Cl)cc32)cc1F [Compound V-125]
Cc1nn(C(F)F)cc1S(=O)(=O)n1ncc2ccc(NC(=O)c3c(F)cccc3Cl)cc21 [Compound V-104]
CC(C)(C)c1cccc(S(=O)(=O)n2ncc3ccc(NC(=O)c4c(F)cccc4Cl)cc32)c1 [Compound V-106]
O=C(Nc1ccc2cnn(S(=O)(=O)c3cccc(Cl)c3)c2c1)c1c(Cl)cccc1Cl [Compound V-72]
Cc1nn(C(F)F)cc1S(=O)(=O)n1ncc2ccc(NC(=O)c3c(F)cccc3F)cc21 [Compound V-13]
O=C(Nc1ccc2c(CO)nn(S(=O)(=O)c3cccc(C(F)(F)F)c3)c2c1)c1c(F)cccc1Cl [Compound 11, 2-Chloro-6-fluoro-N-[3-hydroxymethyl-1-(3-trifluoromethylbenzene-sulfonyl)-1H-indazol-6-yl]benzamide]

Same assay, conditions: benzoxazines, Table 9

IC50, < 15 µM:
N#Cc1cccc(S(=O)(=O)N2C[C@H](CO)Oc3ccc(NC(=O)c4c(F)cccc4F)cc32)c1 [VI-65]
C[C@H]1CN(S(=O)(=O)c2ccc(F)cc2)c2cc(NC(=O)C3(c4ccc(Cl)cc4)CCCC3)ccc2O1 [VI-132]
O=C(Cc1ccc(Cl)cc1)Nc1ccc2c(c1)N(S(=O)(=O)c1ccc(Cl)cc1)C[C@H](CO)O2 [VI-66]
NCC1CN(S(=O)(=O)c2ccc(F)cc2)c2cc(NC(=O)c3c(F)cccc3Cl)ccc2O1 (stereo not drawn) [VI-31]
C[C@@H](O)[C@H]1CN(S(=O)(=O)c2ccc(F)cc2)c2cc(NC(=O)c3c(Cl)cccc3C(F)(F)F)ccc2O1 [VI-22]
C[C@@H](O)[C@H]1CN(S(=O)(=O)c2ccc(F)cc2)c2cc(NC(=O)c3c(F)cccc3Cl)ccc2O1 [VI-17]
C[C@H]1CN(S(=O)(=O)c2ccc(F)cc2)c2cc(NC(=O)c3c(F)cccc3C(F)(F)F)ccc2O1 [VI-19]
